The values that follow come from ChEMBL document CHEMBL1201862, “PubChem BioAssay data set” (2004).

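Assay format: 96-well plates, 48-hour exposure. The concentration for 50% growth inhibition is given as GI50.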 The source made the active and inactive calls. Cut-off read from the data, not from the text of the source: active = GI50 up to about 1.1 µM and inactive = higher.

Test systems include HCC 2998; M19-MEL; LOX IMVI; SF-295; NCI-H23; Malme-3M; KM12; SF-268; CCRF-CEM; SK-MEL-28; U-251; 786-0; SNB-75; SW-620; CAKI-1; SNB-19; BT-549; MDA-MB-435; T47D; DU-145.
Holding throughout (assay): inhibition of tumour cell growth, NCI panel, 48 h

For the molecule `O=C(CNC(=O)OCc1ccccc1)Oc1ccccc1`, the GI50 in the test with HCC 2998, in the test with M19-MEL, with LOX IMVI, with SF-295, in the test on NCI-H23 and in the test on Malme-3M was > 100 µM (inactive) in each case. Also, the GI50 in the test on KM12, in the test on SF-268, in the test with CCRF-CEM, with SK-MEL-28, with U-251 and in the test with 786-0 was > 100 µM (inactive) each time. In addition, the GI50 in the test with SNB-75 is > 100 µM (inactive).

Consider `NC(=O)/C=C/C(=O)O`, for which the GI50 with SW-620, in the test on M19-MEL, in the test with LOX IMVI, with SF-295, with NCI-H23 and in the test with Malme-3M was > 5000 µM (inactive) throughout. The GI50 with KM12, with SF-268, in the test on CCRF-CEM, in the test on SK-MEL-28, in the test on U-251 and in the test on 786-0 was > 5000 µM (inactive) each time. The GI50 in the test with SNB-75 is > 5000 µM (inactive).

In the case of `COC1CC(Br)(C#N)C1` (stereo not drawn), the GI50 in the test with HCC 2998, with M19-MEL, with SF-295, in the test with NCI-H23, in the test with Malme-3M and with KM12 was > 100 µM (inactive) throughout. The GI50 in the test on SF-268, in the test on SK-MEL-28, in the test on U-251, in the test with CAKI-1 and in the test on 786-0 was > 100 µM (inactive) each time.

As to `COc1cc(C(C)O)c[n+](CCc2c[nH]c3ccccc23)c1` (stereo not drawn), the GI50 with SW-620, in the test with SNB-19, in the test on HCC 2998, in the test on M19-MEL, in the test on LOX IMVI and in the test on SF-295 was > 100 µM (inactive) in each case. In addition, the GI50 with NCI-H23 is > 100 µM (inactive); with Malme-3M, > 100 µM (inactive); with KM12, > 100 µM (inactive); with SF-268, 27.1 µM (inactive); in the test with CCRF-CEM it was > 100 µM (inactive); in the test on U-251, > 100 µM (inactive). Moreover, the values for the GI50 in the test with CAKI-1, with 786-0 and in the test on SNB-75 were > 100 µM (inactive), > 100 µM (inactive) and 89.9 µM (inactive), respectively.

As for `CC(=O)/C(=C\c1ccccc1O)C(=O)Nc1ccccc1C`, the GI50 with SW-620 was 20.7 µM (inactive); with SNB-19, 20.7 µM (inactive); in the test on HCC 2998 it was 15.7 µM (inactive); with M19-MEL, 27.7 µM (inactive); in the test with LOX IMVI it was 14.3 µM (inactive); with SF-295 it was 23.2 µM (inactive). Also, the GI50 in the test with NCI-H23 was 17.7 µM (inactive); in the test on Malme-3M, 17.5 µM (inactive); with KM12, 17.2 µM (inactive); in the test on SF-268, 26 µM (inactive); in the test on CCRF-CEM, 14.3 µM (inactive); in the test on SK-MEL-28, 24.3 µM (inactive). Also, the GI50 in the test on U-251 was 8.85 µM (inactive); in the test with CAKI-1, 16 µM (inactive); with 786-0, 15.4 µM (inactive).

With `COc1ccccc1-c1cc(O)c2cc3c(cc2n1)OCO3`, the GI50 in the test with SW-620 was 17.7 µM (inactive); in the test with SNB-19, 45.3 µM (inactive); in the test on HCC 2998, 40.1 µM (inactive); in the test on M19-MEL, 32.4 µM (inactive); in the test on LOX IMVI, 52.4 µM (inactive); with NCI-H23, 54.6 µM (inactive). In addition, the GI50 was 6.82 µM (inactive) in the test with Malme-3M; 18.7 µM (inactive) in the test with CCRF-CEM; > 100 µM (inactive) in the test on SK-MEL-28; > 100 µM (inactive) with U-251; 31.9 µM (inactive) with 786-0; 22.1 µM (inactive) in the test on SNB-75.

`N#Cc1ccc(C2SCc3nc4ccccc4n32)cc1` (stereo not drawn): the GI50 with SW-620 was > 100 µM (inactive); in the test on SNB-19, 81.7 µM (inactive); in the test on HCC 2998 it was > 100 µM (inactive); in the test on M19-MEL it was > 100 µM (inactive); in the test with SF-295, 74.3 µM (inactive); with NCI-H23, 25.6 µM (inactive). In addition, the GI50 in the test on Malme-3M was > 100 µM (inactive); in the test with KM12, > 100 µM (inactive); with SF-268, > 100 µM (inactive); in the test on CCRF-CEM it was > 100 µM (inactive); with SK-MEL-28 it was 42.4 µM (inactive); in the test on U-251 it was > 100 µM (inactive). In addition, the GI50 in the test on CAKI-1 was > 100 µM (inactive); in the test on 786-0 it was > 100 µM (inactive); with SNB-75, 38.5 µM (inactive).

Consider `C/C(=N\NC(=O)CC(=O)N(C(=O)c1ccc(Cl)cc1)c1ccc(C)cc1)c1ccccc1O`, for which the GI50 in the test on SW-620 is > 100 µM (inactive); with SNB-19, 59.4 µM (inactive); in the test on M19-MEL it was > 100 µM (inactive); with SF-295, 7.33 µM (inactive); with NCI-H23, > 100 µM (inactive); in the test on Malme-3M it was > 100 µM (inactive). For the same molecule, the GI50 in the test on KM12 was 9.68 µM (inactive); in the test with SF-268 it was 28.1 µM (inactive); in the test on CCRF-CEM, 5.45 µM (inactive); in the test on SK-MEL-28 it was 61.8 µM (inactive); with U-251 it was 19.6 µM (inactive); with CAKI-1, 64 µM (inactive). Moreover, the GI50 in the test with 786-0 was 13.4 µM (inactive); in the test with SNB-75 it was 18.2 µM (inactive).

Take `NC1=NN(c2ccccc2)C(=O)C1C(=O)C(=O)NC1C2CC3CC(C2)CC1C3` (stereo not drawn): the GI50 with SW-620, in the test with SNB-19, in the test on HCC 2998, in the test with M19-MEL, in the test with LOX IMVI and with SF-295 was > 100 µM (inactive) each time. The GI50 in the test with NCI-H23, with Malme-3M, in the test with KM12, in the test with SF-268, with CCRF-CEM and in the test with SK-MEL-28 was > 100 µM (inactive) throughout. Besides, the GI50 in the test with U-251 and with 786-0 was > 100 µM (inactive) in each case.

Consider `C=C1C(=O)O[C@H]2[C@H]1CC(=O)/C(C)=C/CC[C@@]1(C)O[C@@H]21`, for which the GI50 in the test with SW-620 was 0.324 µM (active); in the test with SNB-19 it was 3.2 µM (inactive); in the test on HCC 2998, 2.4 µM (inactive); in the test on BT-549, 0.423 µM (active); in the test on MDA-MB-435 it was 1.53 µM (inactive); in the test on LOX IMVI it was 0.354 µM (active). In addition, the GI50 with SF-295 is 16.2 µM (inactive); with NCI-H23 it was 1.67 µM (inactive); with Malme-3M, 1.25 µM (inactive); in the test with KM12 it was 2.49 µM (inactive); in the test on SF-268 it was 3.45 µM (inactive); in the test on T47D it was 1.12 µM (active). The GI50 was 0.0841 µM (active) with CCRF-CEM; 0.603 µM (active) in the test on SK-MEL-28; 5 µM (inactive) in the test with U-251; 0.53 µM (active) in the test on CAKI-1; 0.582 µM (active) in the test with 786-0; 16.7 µM (inactive) in the test with SNB-75. Further, in the test on DU-145, the GI50 was 6.5 µM (inactive).

Regarding `CC(NNC(=O)CC(=O)N(C(=O)c1ccccc1)c1ccc(Cl)cc1)c1cc2ccccc2oc1=O` (stereo not drawn), the GI50 in the test with SW-620, in the test with SNB-19, with HCC 2998, in the test on BT-549, with MDA-MB-435 and in the test on LOX IMVI was > 10 µM (inactive) throughout. Further, the GI50 in the test on SF-295, in the test on NCI-H23, in the test on Malme-3M, with KM12, in the test with SF-268 and in the test on T47D was > 10 µM (inactive) each time. Besides, the GI50 with CCRF-CEM, in the test with SK-MEL-28, in the test on U-251, with CAKI-1, with 786-0 and in the test with SNB-75 was > 10 µM (inactive) throughout. Further, the GI50 in the test on DU-145 was > 10 µM (inactive).

`CCOC(=O)/C(C(C)=O)=C(\OC(C)=O)c1ccncc1C(=O)O`: the GI50 with SW-620, in the test on SNB-19, in the test with HCC 2998, in the test with BT-549, in the test with MDA-MB-435 and with LOX IMVI was > 100 µM (inactive) in each case. In addition, the GI50 in the test with SF-295, with NCI-H23, in the test on Malme-3M, in the test with KM12, with SF-268 and with T47D was > 100 µM (inactive) each time. The GI50 in the test with CCRF-CEM, with SK-MEL-28, in the test on U-251, with CAKI-1, with 786-0 and with SNB-75 was > 100 µM (inactive) in each case. In the test on DU-145, the GI50 was > 100 µM (inactive).

Take `C#CCN(Cc1ccc2nc(OC)c(OC)nc2c1)c1cc(OC)c(OC)c(OC)c1`: the GI50 is 30.2 µM (inactive) with SW-620; 26.6 µM (inactive) in the test with SNB-19; 35.1 µM (inactive) in the test on HCC 2998; 15.4 µM (inactive) in the test with BT-549; 6.59 µM (inactive) in the test with MDA-MB-435; 11.7 µM (inactive) in the test on LOX IMVI. The GI50 in the test on SF-295 is 16.3 µM (inactive); in the test with NCI-H23 it was 8.36 µM (inactive); in the test with Malme-3M it was 23 µM (inactive); in the test on KM12, 15 µM (inactive); in the test on SF-268, 25.1 µM (inactive); with T47D, 18.4 µM (inactive). Further, the GI50 is 34.9 µM (inactive) in the test with CCRF-CEM; 40.9 µM (inactive) in the test with SK-MEL-28; 23.9 µM (inactive) with U-251; 24.2 µM (inactive) in the test on CAKI-1; 24 µM (inactive) in the test on 786-0; 33.7 µM (inactive) with SNB-75. For the same molecule, the GI50 with DU-145 was 27.6 µM (inactive).
